# Where “and” joins values, the source holds several entries; their conditions need not be identical. Identical values can stand only once. Like-named read-outs stand apart in the source and are kept apart here.
# How the values were obtained:
# HCT-116 = assay: MTT cytotoxicity assay, HCT-116; type: cell-based; conditions: Homo sapiens, 24 h treatment, mean ± SD of triplicate
# Description: (§1) Subsequently, 100 µL of dimethyl sulfoxide was introduced to dissolve the insoluble formazan.
# [1] = molecular target: T1, aromatase (CYP19A, EC 1.14.14.14) (Homo sapiens, UniProt P11511); assay: biochemical; conditions: individual Data 1-3
# T1 construct: Microsomal samples were isolated from tissue using the Microsome Isolation Kit; tissue BioVision K983-100; host or cells: microsomes from an unnamed tissue
# T1 sequence (P11511 1-503): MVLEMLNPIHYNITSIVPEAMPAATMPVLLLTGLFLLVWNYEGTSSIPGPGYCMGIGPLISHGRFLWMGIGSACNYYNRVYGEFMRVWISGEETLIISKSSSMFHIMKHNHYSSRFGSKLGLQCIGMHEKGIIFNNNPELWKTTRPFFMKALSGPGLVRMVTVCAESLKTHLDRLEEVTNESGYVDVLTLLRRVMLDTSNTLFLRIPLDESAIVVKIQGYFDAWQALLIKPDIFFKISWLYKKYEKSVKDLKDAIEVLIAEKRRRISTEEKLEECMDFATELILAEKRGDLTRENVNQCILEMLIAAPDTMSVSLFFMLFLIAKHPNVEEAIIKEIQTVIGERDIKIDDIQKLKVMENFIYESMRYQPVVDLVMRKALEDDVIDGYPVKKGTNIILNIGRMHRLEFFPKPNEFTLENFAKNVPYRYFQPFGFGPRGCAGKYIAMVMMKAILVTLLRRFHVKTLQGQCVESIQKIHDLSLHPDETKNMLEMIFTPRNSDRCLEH
# Description: In vitro aromatase assay was performed using the BioVision Aromatase Activity Assay Kit (Catalog # K983-100; BioVision, Milpitas, CA, USA). Microsomal samples were isolated from tissue using the Microsome Isolation Kit (Cat. #K249; BioVision, Milpitas, CA, USA). A standard curve was established by diluting the Fluorescence Standard provided in the kit to create a 0.5 pmole/µL solution, followed by setting up a series of standards in a white 96-well plate, adjusting the total volume to 100 µL with aromatase assay buffer. For each reaction well, a 2X concentrated mix was prepared by adding 2–48 µL of the microsomal sample and 2 µL of the NADPH generating system, bringing the final volume to 50 µL with aromatase assay buffer. Background controls (no enzyme) and positive controls (with recombinant aromatase) were included. […] After a 10 min incubation at 37 °C, 30 µL of the substrate/NADP+ mixture was added to each well, and fluorescence was measured immediately in kinetic mode for 60 min at 37 °C. Finally, the change in fluorescence was calculated to determine the specific activity of aromatase using the formula provided in the kit protocol.
# [2] = MTT cytotoxicity assay, normal cell line WI-38; type: cell-based, human; conditions: human, WI-38 cells (normal human lung fibroblasts), normal (non-cancer) cell line, 24 h treatment
# Description: as §1
# MCF-7a = assay: In vitro anti-estrogenic activity assay, MCF-7a
# VEGFR-2 = VEGFR-2 (Homo sapiens, UniProt P35968); assay: In vitro protein kinase inhibition assay (ELISA kit), VEGFR-2; conditions: individual Data 1-3
# Sequence of VEGFR-2 (P35968 20-1356): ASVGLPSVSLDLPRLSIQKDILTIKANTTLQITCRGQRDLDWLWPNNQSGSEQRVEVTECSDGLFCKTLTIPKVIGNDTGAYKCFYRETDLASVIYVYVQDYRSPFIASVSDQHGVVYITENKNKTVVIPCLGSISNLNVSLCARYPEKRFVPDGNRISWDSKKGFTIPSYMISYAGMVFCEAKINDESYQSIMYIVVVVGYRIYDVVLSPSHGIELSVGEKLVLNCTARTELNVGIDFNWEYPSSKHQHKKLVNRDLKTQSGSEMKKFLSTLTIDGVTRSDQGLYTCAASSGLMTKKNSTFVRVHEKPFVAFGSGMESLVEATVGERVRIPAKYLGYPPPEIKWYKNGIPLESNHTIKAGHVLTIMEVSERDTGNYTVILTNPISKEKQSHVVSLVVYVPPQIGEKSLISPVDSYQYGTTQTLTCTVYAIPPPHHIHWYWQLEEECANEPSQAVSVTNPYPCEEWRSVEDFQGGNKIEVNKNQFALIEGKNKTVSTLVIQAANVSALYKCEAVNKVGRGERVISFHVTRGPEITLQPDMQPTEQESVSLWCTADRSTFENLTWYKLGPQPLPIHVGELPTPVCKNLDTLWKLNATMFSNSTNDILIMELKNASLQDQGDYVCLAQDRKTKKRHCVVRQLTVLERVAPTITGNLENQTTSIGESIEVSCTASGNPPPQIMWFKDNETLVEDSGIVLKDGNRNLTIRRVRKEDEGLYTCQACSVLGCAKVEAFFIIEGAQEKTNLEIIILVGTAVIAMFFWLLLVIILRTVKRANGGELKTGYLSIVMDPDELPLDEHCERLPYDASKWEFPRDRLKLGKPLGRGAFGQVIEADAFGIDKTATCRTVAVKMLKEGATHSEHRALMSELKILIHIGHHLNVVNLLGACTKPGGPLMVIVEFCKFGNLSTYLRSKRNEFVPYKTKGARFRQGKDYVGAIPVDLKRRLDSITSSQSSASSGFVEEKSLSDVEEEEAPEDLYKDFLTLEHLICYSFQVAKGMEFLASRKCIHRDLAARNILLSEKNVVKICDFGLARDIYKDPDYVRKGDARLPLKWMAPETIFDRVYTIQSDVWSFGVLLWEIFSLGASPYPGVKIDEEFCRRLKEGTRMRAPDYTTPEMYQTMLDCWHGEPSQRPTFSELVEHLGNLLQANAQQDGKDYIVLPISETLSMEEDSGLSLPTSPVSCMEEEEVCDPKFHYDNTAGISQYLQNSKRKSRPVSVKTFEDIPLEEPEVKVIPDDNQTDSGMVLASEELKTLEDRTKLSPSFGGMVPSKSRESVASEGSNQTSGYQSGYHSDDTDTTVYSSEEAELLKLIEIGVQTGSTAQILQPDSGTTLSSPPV
# HeLa = assay: MTT cytotoxicity assay, HeLa; type: cell-based; conditions: Homo sapiens, 24 h treatment, mean ± SD of triplicate
# Description: as §1
# [3] = test system: HCT-116, MDA-MB-231, HeLa, and MCF-7; assay: MTT cytotoxicity assay, ranges stated over several cell lines; type: cell-based; conditions: Homo sapiens
# Description: as §1
# MDA-MB-231 = assay: MTT cytotoxicity assay, MDA-MB-231; type: cell-based; conditions: Homo sapiens, 24 h treatment, mean ± SD of triplicate
# Description: as §1
# CDK2 = CDK2 (Homo sapiens, UniProt P24941); assay: In vitro protein kinase inhibition assay (ELISA kit), CDK2
# MCF-7 [4] = assay: In vitro anti-estrogenic activity assay, MCF-7
# HER2 = HER2 (Homo sapiens, UniProt P04626); assay: In vitro protein kinase inhibition assay (ELISA kit), HER2
# Sequence of HER2 (P04626 23-1255): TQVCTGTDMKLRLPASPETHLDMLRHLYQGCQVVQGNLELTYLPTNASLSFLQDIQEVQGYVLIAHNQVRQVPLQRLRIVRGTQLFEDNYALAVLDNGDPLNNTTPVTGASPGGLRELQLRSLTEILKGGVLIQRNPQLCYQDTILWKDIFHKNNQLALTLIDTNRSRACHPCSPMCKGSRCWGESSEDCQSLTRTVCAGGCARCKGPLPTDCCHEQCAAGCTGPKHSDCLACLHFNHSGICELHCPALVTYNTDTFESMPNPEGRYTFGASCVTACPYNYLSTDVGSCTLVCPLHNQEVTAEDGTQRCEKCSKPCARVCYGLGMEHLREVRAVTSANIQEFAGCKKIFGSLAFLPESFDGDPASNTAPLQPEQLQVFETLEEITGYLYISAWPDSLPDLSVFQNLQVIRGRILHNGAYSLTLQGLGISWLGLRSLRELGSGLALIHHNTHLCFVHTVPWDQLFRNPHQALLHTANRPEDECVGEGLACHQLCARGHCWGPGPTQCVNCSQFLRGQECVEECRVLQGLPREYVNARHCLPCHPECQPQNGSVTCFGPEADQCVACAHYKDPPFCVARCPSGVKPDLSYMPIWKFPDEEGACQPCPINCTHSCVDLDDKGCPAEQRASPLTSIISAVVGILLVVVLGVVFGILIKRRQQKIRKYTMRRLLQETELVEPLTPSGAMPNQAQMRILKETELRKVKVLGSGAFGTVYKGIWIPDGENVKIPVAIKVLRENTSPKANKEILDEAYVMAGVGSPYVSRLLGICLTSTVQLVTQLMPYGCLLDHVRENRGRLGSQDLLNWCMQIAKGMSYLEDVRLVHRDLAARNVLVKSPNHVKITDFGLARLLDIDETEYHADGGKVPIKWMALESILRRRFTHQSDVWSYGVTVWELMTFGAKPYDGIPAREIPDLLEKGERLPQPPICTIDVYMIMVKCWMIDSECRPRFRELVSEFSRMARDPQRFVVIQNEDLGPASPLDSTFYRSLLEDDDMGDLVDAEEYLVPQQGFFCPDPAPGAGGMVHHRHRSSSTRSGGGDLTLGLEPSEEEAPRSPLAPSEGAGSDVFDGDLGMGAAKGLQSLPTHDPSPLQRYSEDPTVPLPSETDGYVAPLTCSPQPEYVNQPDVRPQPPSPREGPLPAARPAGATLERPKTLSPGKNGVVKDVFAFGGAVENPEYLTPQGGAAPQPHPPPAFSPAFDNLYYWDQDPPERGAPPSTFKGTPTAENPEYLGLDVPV
# MCF-7 [5] = assay: MTT cytotoxicity assay, MCF-7; type: cell-based, human; conditions: Homo sapiens, MCF7, 24 h, 24 h treatment, mean ± SD of triplicate
# Description: as §1
# WI-38 = assay: MTT cytotoxicity assay, normal cell line WI-38; type: cell-based, human; conditions: normal (non-cancer) cell line, 24 h treatment
# Description: as §1
# [6] = cell count relative to the control (17β-E2)
# [7] = HCT-116, MDA-MB-231, HeLa, MCF-7, range, read-out: IC50 values, range over the cancer cell lines tested
smiles,measurement,setting,value
"O=C(/C=C/c1ccc(O)cc1)c1ccccc1 [Compound 4b, (E)-3-(4-Hydroxyphenyl)-1-phenylprop-2-en-1-one]",IC50,HCT-116,6.59 ± 0.3 µM
same,Inhibition (%) Aromatase,[1]; 0.01 µM,5.7% and 3.5% and 7.9%
same,Inhibition (%) Aromatase,[1]; 0.1 µM,9.9% and 14.2%
same,Inhibition (%) Aromatase,[1]; 1 µM,44% and 41.7%
same,Inhibition (%) Aromatase,[1]; 10 µM,72.5% and 78.6%
same,Inhibition (%) Aromatase,[1]; 100 µM,87% and 93.8%
same,inhibition at 0.1 µM,"[1]; read-out: Inhibition (%) Aromatase, 0.1 µM",11%
same,inhibition at 1 µM,"[1]; read-out: Inhibition (%) Aromatase, 1 µM",47.8%
same,inhibition at 10 µM,"[1]; read-out: Inhibition (%) Aromatase, 10 µM",75%
same,inhibition at 100 µM,"[1]; read-out: Inhibition (%) Aromatase, 100 µM",89%
same,IC50 at 24 h,[2],54.6 ± 3.1 µM
same,Cell Proliferation MCF-7a %,MCF-7a; [6],99%
same,Cell Proliferation MCF-7a Cell Count,MCF-7a; mean ± SD of triplicate,"20,669 ± 597"
same,Inhibition (%) VEGFR2,VEGFR-2; 0.01 µM,19.2% and 19.7%
same,Inhibition (%) VEGFR2,VEGFR-2; 0.1 µM,48.2% and 48.6%
same,Inhibition (%) VEGFR2,VEGFR-2; 1 µM,73.4%
same,Inhibition (%) VEGFR2,VEGFR-2; 10 µM,89% and 90%
same,Inhibition (%) VEGFR2,VEGFR-2; 100 µM,95.9%
same,inhibition at 0.01 µM,"VEGFR-2; read-out: Inhibition (%) VEGFR2, 0.01 µM",19.4%
same,inhibition at 0.1 µM,"VEGFR-2; read-out: Inhibition (%) VEGFR2, 0.1 µM",48.3%
same,inhibition at 1 µM,"VEGFR-2; read-out: Inhibition (%) VEGFR2, 1 µM",73.8%
same,inhibition at 10 µM,"VEGFR-2; read-out: Inhibition (%) VEGFR2, 10 µM",89.5%
same,inhibition at 100 µM,"VEGFR-2; read-out: Inhibition (%) VEGFR2, 100 µM",96.1%
same,IC50,HeLa,13.1 ± 1.1 µM
same,IC50,[3]; [7],2.08 to 34.9 µM
same,IC50,"[3]; HCT-116 and HeLa, range over the compounds named, read-out: IC50 values, range against HCT-116 and HeLa",6.59 to 22.6 µM
same,IC50,"[3]; MDA-MB-231 and MCF-7, range over the compounds named, read-out: IC50 values, range against MDA-MB-231 and MCF-7",2.08 to 13.6 µM
same,IC50,MDA-MB-231,4.93 ± 0.3 µM
same,IC50,CDK2,0.288 ± 0.009 µM
same,Inhibition (%) CDK2,"CDK2; 0.01 µM, individual Data 1-3",18.7% and 19.5%
same,Inhibition (%) CDK2,"CDK2; 0.1 µM, individual Data 1-3",38.2% and 39.3%
same,Inhibition (%) CDK2,"CDK2; 1 µM, individual Data 1-3",66.1% and 65.3%
same,Inhibition (%) CDK2,"CDK2; 10 µM, individual Data 1-3",84.9% and 86%
same,Inhibition (%) CDK2,"CDK2; 100 µM, individual Data 1-3",94.8%
same,inhibition at 100 µM,CDK2; read-out: Inhibition (%) CDK2,93.8%
same,inhibition at 0.01 µM,"CDK2; read-out: Inhibition (%) CDK2, 0.01 µM, individual Data 1-3",19.1%
same,inhibition at 0.1 µM,"CDK2; read-out: Inhibition (%) CDK2, 0.1 µM, individual Data 1-3",38.5%
same,inhibition at 1 µM,"CDK2; read-out: Inhibition (%) CDK2, 1 µM, individual Data 1-3",66.9%
same,inhibition at 10 µM,"CDK2; read-out: Inhibition (%) CDK2, 10 µM, individual Data 1-3",85.4%
same,inhibition at 100 µM,"CDK2; read-out: Inhibition (%) CDK2, 100 µM, individual Data 1-3",94.1%
same,Cell Proliferation MCF-7 %,MCF-7 [4]; [6],34%
same,Cell Proliferation MCF-7 Cell Count,MCF-7 [4]; mean ± SD of triplicate,6213 ± 221
same,Reduction of growth/cell count (inhibition) in MCF-7,MCF-7 [4]; relative to control,66%
same,IC50,HER2,0.387 ± 0.015 µM
same,Inhibition (%) Her2,"HER2; 0.01 µM, individual Data 1-3",8.76% and 10.34%
same,Inhibition (%) Her2,"HER2; 0.1 µM, individual Data 1-3",36.2% and 38.76%
same,Inhibition (%) Her2,"HER2; 1 µM, individual Data 1-3",71.3% and 70.87%
same,Inhibition (%) Her2,"HER2; 10 µM, individual Data 1-3",80.35% and 82.9%
same,Inhibition (%) Her2,"HER2; 100 µM, individual Data 1-3",93% and 95.67%
same,inhibition at 0.01 µM,"HER2; read-out: Inhibition (%) Her2, 0.01 µM, individual Data 1-3",9.25%
same,inhibition at 0.1 µM,"HER2; read-out: Inhibition (%) Her2, 0.1 µM, individual Data 1-3",37.7%
same,inhibition at 1 µM,"HER2; read-out: Inhibition (%) Her2, 1 µM, individual Data 1-3",73%
same,inhibition at 10 µM,"HER2; read-out: Inhibition (%) Her2, 10 µM, individual Data 1-3",81.6%
same,inhibition at 100 µM,"HER2; read-out: Inhibition (%) Her2, 100 µM, individual Data 1-3",94.2%
same,IC50,MCF-7 [5],2.08 ± 0.1 µM
"COc1ccccc1/C=C/C(=O)c1ccccc1 [Compound 4c, (E)-3-(2-Methoxyphenyl)-1-phenylprop-2-en-1-one]",IC50,HCT-116,28.4 ± 1.8 µM
same,IC50,WI-38,> 100 µM
same,IC50 at 24 h,[2],77.3 to 100 µM
same,IC50,HeLa,42.5 ± 2.5 µM
same,IC50,[3]; [7],23.5 to 74.5 µM
same,IC50,MDA-MB-231,35.9 ± 2.1 µM
same,IC50,MCF-7 [5],23.5 ± 1.6 µM
